Patent US6376511B2, “8-aminoquinolines” (The University of Mississippi, priority 1999, dated 2002)

How the values were obtained:
Pneumocystis carinii = assay: Anti-Pneumocystis carinii test (induced Pneumocystis carinii infection in immunosuppressed mice), oral; format: in vivo; conditions: mice (Table 8)
[1] = mice; cited from earlier work
[2] = rhesus monkey; cited from earlier work

| Compound | Number of animals with organism after treatment/Number of animals treated, Giesma Stain (Pneumocystis carinii; oral 2 mg/kg/day (x21)) | Number of animals with organism after treatment/Number of animals treated, Giesma Stain (Pneumocystis carinii; oral 5 mg/kg/day (x21), listed as (+) Enantiomer, 5 mg/kg/day) | Number of animals with organism after treatment/Number of animals treated, Giesma Stain (Pneumocystis carinii; oral 10 mg/kg/day (x21), listed as (+) Enantiomer, 10 mg/kg/day) | toxicity relative to the l-form [1] | Number of animals with organism after treatment/Number of animals treated, Giesma Stain (Pneumocystis carinii; oral 5 mg/kg/day (x21), listed as (−) Enantiomer, 5 mg/kg/day) | Number of animals with organism after treatment/Number of animals treated, Giesma Stain (Pneumocystis carinii; oral 10 mg/kg/day (x21), listed as (−) Enantiomer, 10 mg/kg/day) | toxicity relative to d-primaquine [2] | toxicity relative to racemic primaquine [2] |
| --- | --- | --- | --- | --- | --- | --- | --- | --- |
| COc1cc(NC(C)CCCN)c2ncccc2c1 (single isomer, unassigned; (+)) [(+) Primaquine, reference compound] | 10/10 | 7/10 | 1/10 | approximately 4 times |  |  |  |  |
| COc1cc(NC(C)CCCN)c2ncccc2c1 (single isomer, unassigned; (-)) [(−) Primaquine, reference compound] |  |  |  |  | 10/10 | 10/10 | 3 to 5 times | at least twice as toxic |
